Among the data in paper PMC7904875, “Identification and Functional Analysis of SlitOBP11 From Spodoptera litura” (Frontiers in Physiology, 2021) are IC50, Kd and Ki values, retold here.

Where only a bound is given, the exact number is not on record here.

The target of the first assay is T1, SlitOBP11 (Spodoptera litura, UniProt A0A9J7E9A4).
T1 construct: gene LOC111356549; mature protein, predicted 23-residue signal peptide removed; ORF 465 bp, given as 155 aa; pET32a(+) (BamHI/HindIII), E. coli BL21(DE3); Ni-NTA purified, tag cleaved with enterokinase
T1 sequence (A0A9J7E9A4 24-154): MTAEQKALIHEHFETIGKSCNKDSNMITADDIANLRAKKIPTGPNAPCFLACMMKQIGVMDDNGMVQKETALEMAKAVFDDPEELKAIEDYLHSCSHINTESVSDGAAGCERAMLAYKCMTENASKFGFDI
Briefly: competitive displacement of 1-NPN fluorescence. It counts as binding.
Conditions: not given
Usually IC50 stands for the concentration that gives 50% inhibition. Regarding `CC(=O)/C=C/C1=C(C)CCCC1(C)C` [Beta-ionone], the IC50 was more than 50 µM.

The compound `CCCCCCCCCCCCCCCCCC` [N-octadecane] registered an IC50 of more than 50 µM.

In turn, `CCC(=O)O` [Propanoic acid] gave an IC50 of more than 50 µM.

With `CC1=CCCC(C)(C)C1/C=C/C(C)O` (stereo not drawn) [Alpha- ionol], the IC50 was more than 50 µM.

Consider `OCCc1ccccc1` [Phenethyl alcohol], for which the IC50 was more than 50 µM.

Compound `CC1=CCC(C(C)C)C=C1` (stereo not drawn) [Alpha-phellandrene] showed an IC50 of more than 50 µM.

The compound `CCCC(=O)CC` [3-hexanone] yielded an IC50 of more than 50 µM.

`CC/C=C\CCOC(C)=O` [Cis-3-hexenyl acetate] registered an IC50 of more than 50 µM.

`CC/C=C/C=C\CCCCCCCCOC(C)=O` [(Z, E)-9,11-tetradecadienyl acetate, (Z,E)-9,11-Tetradecadienyl acetate]: the IC50 turned out to be 15.6 ± 1.41 µM.

As for `CCC(C)CC(=O)O` (stereo not drawn) [3-methylpentanoic acid], the IC50 is more than 50 µM.

`OCc1ccccc1` [Benzyl alcohol]: the IC50 was more than 50 µM.

`C=C1CC/C=C(\C)CC[C@@H]2[C@@H]1CC2(C)C` [Beta-caryophyllene] displayed an IC50 of more than 50 µM.

`CCCCCCCCCC=O` [Decanal] came in with an IC50 of more than 50 µM.

On to `CCCCCC(=O)O` [Hexanoic acid], for which the IC50 is more than 50 µM.

The compound `CCCCCCCCCCCC` [Dodecane] showed an IC50 of more than 50 µM.

With `CC(=O)CC/C=C(\C)CCC=C(C)C` [Geranylacetone], the IC50 is more than 50 µM.

Regarding `c1ccc2[nH]ccc2c1` [Indole], the IC50 was more than 50 µM.

Turning to `C/C=C/C/C=C\CCCCCCCCOC(C)=O` [(Z, E)-9,12-tetradecadienyl acetate, (Z,E)-9,12-Tetradecadienyl acetate], the IC50 came out at 16.2 ± 0.32 µM.

Consider `CCCC(=O)O` [Butyric acid], for which the IC50 is more than 50 µM.

`CCCCCCC(=O)O` [Heptanoic acid] showed a half-maximal inhibitory concentration (IC50) of more than 50 µM.

Take `CC(C)CC(=O)O` [3-methylbutyric acid]: the IC50 is more than 50 µM.

On to `C=C(C)[C@H]1CC=C(C)C(=O)C1` [(+)-Carvone], for which the IC50 is more than 50 µM.

Regarding `CCc1ccccc1` [Ethylbenzene], the IC50 is more than 50 µM.

On to `CCCCC(=O)O` [Pentanoic acid], for which the IC50 is more than 50 µM.

In the case of `CCCCCCCC=O` [Octyl aldehyde], the IC50 was more than 50 µM.

For the compound `C=CC(=C)CCC=C(C)C` [Myrcene], the IC50 was more than 50 µM.

In the case of `CC(C)C(=O)O` [Isobutyric acid], the concentration for half-maximal inhibition (IC50) is more than 50 µM.

In turn, `CC12CCC(CC1)C(C)(C)O2` [Eucalyptol] had an IC50 of more than 50 µM.

Take `O=Cc1ccccc1` [Benzaldehyde]: the IC50 was more than 50 µM.

With `CCCC/C=C\CCCCCCCCOC(C)=O` [(Z)-9-tetradecenyl acetate, (Z)-9-Tetradecenyl acetate], the IC50 came to 11.2 ± 0.55 µM.

Take `CCCCCCCCCCCCC` [Tridecane]: the 50% inhibitory concentration (IC50) is more than 50 µM.

Regarding `COC(=O)c1ccccc1O` [Methyl salicylate], the IC50 is more than 50 µM.

Compound `CC(=O)OC/C=C(\C)CCC=C(C)C` [Geranyl acetate] displayed a concentration for half-maximal inhibition (IC50) of more than 50 µM.

`C=C(C)[C@H]1CC=C(C)CC1` [(R)-(+)-limonene]: the IC50 is more than 50 µM.

As to `CCCCCCCCCCCCCC` [Tetradecane], the 50% inhibitory concentration (IC50) was more than 50 µM.

Compound `C=CC(C)(O)CC/C=C(\C)CCC=C(C)C` (stereo not drawn) [Trans-nerolidol] showed an IC50 of more than 50 µM.

Turning to `CC(=O)OCc1ccccc1` [Benzyl acetate], the IC50 is more than 50 µM.

In the case of `CC(=O)OCCc1ccccc1` [Phenethyl acetate], the IC50 is 48.6 ± 0.52 µM.

On to `CCCCC(C)=O` [2-hexanone], for which the IC50 is more than 50 µM.

Compound `CC(=O)O` [Acetic acid] showed an IC50 of more than 50 µM.

As to `CC(C)CCC(=O)O` [4-methylpentanoic acid], the IC50 is more than 50 µM.

The same assay, now with this note: 2 μM protein, 2 μM 1-NPN, 30 mM Tris-HCl pH 7.4, 4°C; read-out: IC50.
Take Farnesene: the IC50 is more than 50 µM.

Still in this assay, the particulars now being: read-out: IC50.
In the case of `C=CC(C)(O)CCC=C(C)C` (racemic) [(±)-Linalool], the IC50 is more than 50 µM.

For the compound `CC/C=C/CCCCCCCCCCOC(C)=O` [(E)-11-tetradecenly acetate, (E)-11-Tetradecenyl acetate], the IC50 was found to be 15.2 ± 0.54 µM.

`COC(=O)c1ccccc1N` [Methyl anthranilate]: the IC50 was more than 50 µM.

Staying with this assay, now noted: read-out: IC50 (μmol L^-1); 2 μM protein, 2 μM 1-NPN, 30 mM Tris-HCl pH 7.4, 4°C.
With `C/C=C/C(=O)O` [Crotonic acid], the IC50 is more than 50 µM.

In a further assay the target is T1, SlitOBP11. Briefly: fluorescence titration, Scatchard. The class given is binding. The conditions noted are these: read-out: dissociation constant.
Regarding `c1ccc(Nc2cccc3ccccc23)cc1` [1-NPN, 1-N-Phenyl-naphthylamine], the Kd amounted to 8.09 ± 0.26 µM.

A further assay addresses T1, SlitOBP11. Briefly: competitive displacement of 1-NPN fluorescence. The class given is binding.
Conditions: not given
The source holds these as a separate data set. An excerpt: competitive displacement of 1-NPN fluorescence on SlitOBP11
Consider `O=CCc1ccccc1` [Phenylacetaldehyde], for which the 50% inhibitory concentration (IC50) turned out to be 43.4 ± 10.1 µM.

The same assay, now with this note: read-out: Ki (μmol L^-1)^∗.
Usually Ki stands for a measure of affinity in units of concentration, obtained from inhibition or displacement. Regarding `O=CCc1ccccc1` [Phenylacetaldehyde], the inhibition constant (Ki) amounted to 35.8 ± 9.76 µM.

On to `CC/C=C/C=C\CCCCCCCCOC(C)=O` [(Z, E)-9,11-tetradecadienyl acetate, (Z,E)-9,11-Tetradecadienyl acetate], for which the inhibitory constant (Ki) was 13.9 ± 1.44 µM.

For the compound `C/C=C/C/C=C\CCCCCCCCOC(C)=O` [(Z, E)-9,12-tetradecadienyl acetate, (Z,E)-9,12-Tetradecadienyl acetate], the Ki amounted to 14.4 ± 0.317 µM.

As for `CC/C=C/CCCCCCCCCCOC(C)=O` [(E)-11-tetradecenly acetate, (E)-11-Tetradecenyl acetate], the Ki amounted to 13.5 ± 0.479 µM.

With `CCCC/C=C\CCCCCCCCOC(C)=O` [(Z)-9-tetradecenyl acetate, (Z)-9-Tetradecenyl acetate], the Ki was found to be 9.97 ± 0.492 µM.

`CC(=O)OCCc1ccccc1` [Phenethyl acetate]: the inhibition constant Ki came out at 43.1 ± 0.488 µM.
